# Measured values as given in ChEMBL document CHEMBL5729068, “Inhibitors of KRAS G12C and methods of using the same” (2022).
# Molecular target: GTPase KRas (Homo sapiens, UniProt P01116, C118A/G12C)
# Experiment: Biochemical Assay: The following assay conditions were employed: Coupled Nucleotide Exchange Assay: Purified GDP-bound KRAS protein (aa 1-169), containing both G12C and C118A amino acid substitutions and an N-terminal His-tag, was pre-incubated with a compound dose-response titration for 5 min in assay buffer (25 mM HEPES pH 7.4, 10 mM MgCl2, and 0.01% Triton X-100). Following compound pre-incubation, purified SOS protein (aa 564-1049) and GTP (Roche 10106399001) were added to the assay wells and incubated for an additional 30 min. To determine the extent of inhibition of SOS-mediated nucleotide exchange, purified GST-tagged cRAF (aa 1-149), nickel chelate AlphaLISA acceptor beads (PerkinElmer AL108R), and AlphaScreen glutathione donor beads (PerkinElmer 6765302) were added to the assay wells and incubated for 5 minutes. The assay plates were then read on a PerkinElmer EnVision Multilabel Reader, using AlphaScreen® technology, and data were analyzed using a 4-parameter logistic model to calculate IC50 values.
# Chain of GTPase KRas (P01116 whole entry G12C/C118A, the tested form may be a part): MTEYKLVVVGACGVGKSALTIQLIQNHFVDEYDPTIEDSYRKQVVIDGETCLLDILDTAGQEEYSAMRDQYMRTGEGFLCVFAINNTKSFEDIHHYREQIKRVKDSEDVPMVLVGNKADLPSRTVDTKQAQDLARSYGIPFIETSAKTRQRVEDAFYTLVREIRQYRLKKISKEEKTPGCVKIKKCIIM
compound,measurement,value
"C=CC(=O)N1[C@H](C)CN(c2nc(=O)n(-c3c(C)ccnc3C(C)C)c3nc(-c4c(N)cccc4F)c(Cl)cc23)C[C@@H]1C (atropisomer, axis not shown)",IC50,14 nM
